Measured values as given in PubChem BioAssay AID2060496 (Molecular Pharmacology Branch, DTP, NCI, 2025).

Test system: 276233-004-R-J1-PDC complex spheroid viability
Test: Anticancer human tumor 276233-004-R-J1-PDC patient-derived colon adenocarcinoma cell line growth inhibition [GQUAD]
Details: for IC50: curve of first compound; for viability, T/C: stronger effect = lower value
Procedure, shortened: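 Tumor cells were grown as complex spheroids with HUVEC endothelial cells and mesenchymal stem cells as stroma. G-quadruplex stabilizers were combined with targeted agents over half-log dilutions from near the clinical Cmax, or from 10 microM.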

[1] = second compound 0.0316 µM, first compound 0.0316 µM
[2] = second compound 0.0316 µM, first compound 0.1 µM
[3] = second compound 0.0316 µM, first compound 0.316 µM
[4] = second compound 0.0316 µM, first compound 1 µM
[5] = second compound 0.0316 µM, first compound 3.16 µM
[6] = second compound 0.0316 µM, first compound 10 µM
[7] = second compound 0.1 µM, first compound 0.0316 µM
[8] = second compound 0.1 µM, first compound 0.1 µM
[9] = second compound 0.1 µM, first compound 0.316 µM
[10] = second compound 0.1 µM, first compound 1 µM
[11] = second compound 0.1 µM, first compound 3.16 µM
[12] = second compound 0.1 µM, first compound 10 µM
[13] = second compound 0.316 µM, first compound 0.0316 µM
[14] = second compound 0.316 µM, first compound 0.1 µM
[15] = second compound 0.316 µM, first compound 0.316 µM
[16] = second compound 0.316 µM, first compound 1 µM
[17] = second compound 0.316 µM, first compound 3.16 µM
[18] = second compound 0.316 µM, first compound 10 µM
[19] = second compound 1 µM, first compound 0.0316 µM
[20] = second compound 1 µM, first compound 0.1 µM
[21] = second compound 1 µM, first compound 0.316 µM
[22] = second compound 1 µM, first compound 1 µM
[23] = second compound 1 µM, first compound 3.16 µM
[24] = second compound 1 µM, first compound 10 µM
[25] = second compound 3.16 µM, first compound 0.0316 µM
[26] = second compound 3.16 µM, first compound 0.1 µM
[27] = second compound 3.16 µM, first compound 0.316 µM
[28] = second compound 3.16 µM, first compound 1 µM
[29] = second compound 3.16 µM, first compound 3.16 µM
[30] = second compound 3.16 µM, first compound 10 µM
[31] = second compound 10 µM, first compound 0.0316 µM
[32] = second compound 10 µM, first compound 0.1 µM
[33] = second compound 10 µM, first compound 0.316 µM
[34] = second compound 10 µM, first compound 1 µM
[35] = second compound 10 µM, first compound 3.16 µM
[36] = second compound 10 µM, first compound 10 µM
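Also: spheroids exposed to drugs for seven days.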
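For viability, T/C in this document: 100% = DMSO vehicle control viability.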

COc1cc(C2c3cc4c(cc3C(OC3OC5COC(C)OC5C(O)C3O)C3COC(=O)C23)OCO4)cc(OC)c1O (stereo unspecified) + Cc1[nH]c2ccc(F)cc2c1-c1nc2c3cccnc3c3ncccc3c2[nH]1
IC50 (second compound 0.0316 µM): > 10 µM
IC50 (second compound 0.1 µM): > 10 µM
IC50 (second compound 0.316 µM): > 10 µM
IC50 (second compound 1 µM): > 10 µM
IC50 (second compound 3.16 µM): 2.82 µM
IC50 (second compound 10 µM): < 0.0316 µM
viability, T/C [1]: 72.9%
viability, T/C [2]: 82.7%
viability, T/C [3]: 111%
viability, T/C [4]: 80.6%
viability, T/C [5]: 89.2%
viability, T/C [6]: 83.7%
viability, T/C [7]: 89.9%
viability, T/C [8]: 110%
viability, T/C [9]: 84.2%
viability, T/C [10]: 78.9%
viability, T/C [11]: 83.7%
viability, T/C [12]: 76.3%
viability, T/C [13]: 79.8%
viability, T/C [14]: 79.7%
viability, T/C [15]: 85.2%
viability, T/C [16]: 101%
viability, T/C [17]: 83%
viability, T/C [18]: 69%
viability, T/C [19]: 78.4%
viability, T/C [20]: 65.1%
viability, T/C [21]: 71.4%
viability, T/C [22]: 64.9%
viability, T/C [23]: 73.7%
viability, T/C [24]: 64.2%
viability, T/C [25]: 53%
viability, T/C [26]: 63.3%
viability, T/C [27]: 52%
viability, T/C [28]: 65.7%
viability, T/C [29]: 47.3%
viability, T/C [30]: 50.9%
viability, T/C [31]: 50.1%
viability, T/C [32]: 49.6%
viability, T/C [33]: 44.2%
viability, T/C [34]: 50.9%
viability, T/C [35]: 41%
viability, T/C [36]: 45%

COc1cccc2c1C(=O)c1c(O)c3c(c(O)c1C2=O)CC(O)(C(=O)CO)CC3OC1CC(N)C(O)C(C)O1 (stereo unspecified) + Cc1[nH]c2ccc(F)cc2c1-c1nc2c3cccnc3c3ncccc3c2[nH]1
IC50 (second compound 0.0316 µM): 2.48 µM
IC50 (second compound 0.1 µM): 4.57 µM
IC50 (second compound 0.316 µM): 3.27 µM
IC50 (second compound 1 µM): 3.6 µM
IC50 (second compound 3.16 µM): 0.415 µM
IC50 (second compound 10 µM): < 0.0316 µM
viability, T/C [1]: 79.4%
viability, T/C [2]: 79.9%
viability, T/C [3]: 108%
viability, T/C [4]: 64.9%
viability, T/C [5]: 53%
viability, T/C [6]: 39%
viability, T/C [7]: 82.6%
viability, T/C [8]: 96.3%
viability, T/C [9]: 75.3%
viability, T/C [10]: 89.1%
viability, T/C [11]: 54.2%
viability, T/C [12]: 40.9%
viability, T/C [13]: 82.6%
viability, T/C [14]: 82.6%
viability, T/C [15]: 81.3%
viability, T/C [16]: 77.2%
viability, T/C [17]: 50.5%
viability, T/C [18]: 34.2%
viability, T/C [19]: 57.2%
viability, T/C [20]: 78.3%
viability, T/C [21]: 70.1%
viability, T/C [22]: 70.9%
viability, T/C [23]: 52.1%
viability, T/C [24]: 33.8%
viability, T/C [25]: 50.7%
viability, T/C [26]: 63.5%
viability, T/C [27]: 52.3%
viability, T/C [28]: 41.4%
viability, T/C [29]: 43.3%
viability, T/C [30]: 35.7%
viability, T/C [31]: 50%
viability, T/C [32]: 44.4%
viability, T/C [33]: 49.1%
viability, T/C [34]: 47.6%
viability, T/C [35]: 39.7%
viability, T/C [36]: 27.6%

Nc1ccn(C2OC(CO)C(O)C2(F)F)c(=O)n1 (stereo unspecified) + Cc1[nH]c2ccc(F)cc2c1-c1nc2c3cccnc3c3ncccc3c2[nH]1
IC50 (second compound 0.0316 µM): > 10 µM
IC50 (second compound 0.1 µM): > 10 µM
IC50 (second compound 0.316 µM): > 10 µM
IC50 (second compound 1 µM): > 10 µM
IC50 (second compound 3.16 µM): < 0.0316 µM
IC50 (second compound 10 µM): < 0.0316 µM
viability, T/C [1]: 102%
viability, T/C [2]: 74.9%
viability, T/C [3]: 74.1%
viability, T/C [4]: 71%
viability, T/C [5]: 66.2%
viability, T/C [6]: 78.4%
viability, T/C [7]: 72.1%
viability, T/C [8]: 88.4%
viability, T/C [9]: 61.7%
viability, T/C [10]: 76.3%
viability, T/C [11]: 82.9%
viability, T/C [12]: 67.8%
viability, T/C [13]: 67%
viability, T/C [14]: 74.8%
viability, T/C [15]: 79.4%
viability, T/C [16]: 73%
viability, T/C [17]: 83.2%
viability, T/C [18]: 63.6%
viability, T/C [19]: 65%
viability, T/C [20]: 58.5%
viability, T/C [21]: 68.8%
viability, T/C [22]: 76.7%
viability, T/C [23]: 65.8%
viability, T/C [24]: 64.8%
viability, T/C [25]: 53.8%
viability, T/C [26]: 42%
viability, T/C [27]: 50.6%
viability, T/C [28]: 50.1%
viability, T/C [29]: 51.9%
viability, T/C [30]: 59.3%
viability, T/C [31]: 39.7%
viability, T/C [32]: 43%
viability, T/C [33]: 43.4%
viability, T/C [34]: 40.2%
viability, T/C [35]: 42.2%
viability, T/C [36]: 40%
